Patent publication US10624871B2, “Bismuth(III) compounds and methods thereof” (priority 2016, dated 2020)

How the values were obtained:
Assay type in all cases: cell-based
K. pneumonia (NDM-1+) = assay: Microdilution MIC and MBC assay, FICI; conditions: Bi(III) compound at 32 μg mL^−1, K. pneumonia (NDM-1+)
E. coli (NDM-1−) = assay: Checkerboard MIC analysis, NDM-1-null strain; conditions: NDM-1-null E. coli strain
Procedure: FIGS. 10 (a)-(b) show a heat map of checkerboard MIC analysis over MER and CBS against clinical isolates of (a) E. coli (NDM-1^+) and (b) E. coli (NDM-1^−).
MIC values of either antibiotics or Bi(III) compounds were determined firstly by standard broth micro-dilution method (Clinical and Laboratory Standards Institute (CLSI) M100-S20, 2010). Briefly, bacteria cells were cultured in LB broth overnight at 37° C. at 250 rpm and the optical density was measured at 600 nm (OD600) using a microtiter plate reader. The bacteria density was adjusted to about 1×10^6 CFU mL^−1 and checked by CFU counting on agar plates afterwards. Tested compounds were added triplicately into individual wells of flat-bottomed 96-well plates and performed two-fold serial dilution, followed by addition of prepared bacterial inoculum. […] The MIC was determined as the lowest concentration of compounds that could inhibit the growth of microorganism by both visual reading and OD600 measurement. […]
For the test of drug combination, antibiotics and Bi(III) compounds were co-administrated at concentrations up to 8 times higher than the MIC of the compounds tested alone. […] The FICIs were determined based on the following equation: FICI=FICA+FICB=CA/MICA+CB/MICB where MICA and MICB are the MIC values of compound A and B when functioning alone, and CA and CB are the concentrations of compound A and B at the effective combinations. […]

E. coli cells (NDM+) = assay: Resistance study, mutation frequency and MPC
From the text: Given the very notion of MIC, all susceptible bacterial cells will be suppressed or killed by a dose above it. However, bacterial population is often large; an infection will likely contain first-step mutants with lowed susceptibility. Thus, the dose of compounds at MIC will adversely amplify the population of those less-susceptible mutants.^26 Thus mutant prevention concentration (MPC), defined as a compound concentration that suppresses the growth of first-step resistant mutant in large quantity of susceptible bacterial population, together with mutant prevention index (MPI=MPC/MIC), is introduced to estimate the mutant prevention ability of exemplary compound combination.
For a typical test, E. coli cells (NDM^+) at 1˜2×10^10 CFU were spread onto LB agar containing combinations of MER and CBS at identical concentrations. All the plates were incubated at 37° C. Upon incubation for 48 hrs, up to 4 colonies were picked and re-cultured from any plates with observable colonies, followed by the measurement of their MIC values. Any MICs of MER that were higher than the original values (16 μg mL^−1) were determined as mutant colony. The concentration that restricted the growth of mutant colonies was determined as MPC.

E. coli (NDM-1+) = assay: In vitro cell infection assay in MDCK cells
Procedure: To further evaluate the antimicrobial efficacy of CBS in combination with MER, we exploited the in vitro bacterial infection model in mammalian cell. Typically, MDCK cells were cultured in minimum essential Media (MEM) supplemented with fetal bovine serum (FBS, 10%) and grown at 37° C. in the 5% CO2 humidified atmosphere for three days. The MDCK cells were then washed three times with phosphate buffer saline (PBS) solution, liberated with trypsin-EDTA (0.25%) and re-suspended by culture medium. About 500 μL of re-suspended cells were seeded in 24-well plates and incubated as described above for 48 hrs to ensure confluency, resulting in about 1.0×10^5 cells per well by typan blue assay. The freshly grown logarithmic E. coli (NDM-1^+) bacterial cells were washed with PBS for three times and re-suspended in MEM/10% FBS. The density was adjusted to 2×10^7 CFU mL^−1. Then 500 μL of bacterial suspension was added to each well and substituted for the previous MDCK culture medium. […]
For those cell-invaded bacteria experiments, the infected cells were incubated in culture medium supplemented with 100 μg mL^−1 ciprofloxacin for 1 h to remove extracellular bacteria. […] The assay was performed in triplicate, repeated three times and the results were expressed as average ±SD.

O=C([O-])CC([O-])(CC(=O)[O-])C(=O)[O-].O=C([O-])CC([O-])(CC(=O)[O-])C(=O)[O-].[Bi+3].[Bi+3].[K+] [Complex 10, colloidal bismuth subcitrate]
MBC of MER with Bi(III) compound (K. pneumonia (NDM-1+)): 8 µg/mL | MIC of MER with Bi(III) compound (K. pneumonia (NDM-1+)): 4 µg/mL | synergy of MER and CBS in checkerboard MIC (E. coli (NDM-1−)): no inhibition was observed | mutation frequency (E. coli cells (NDM+); MER with CBS at 32, MIC multiple 0.5): >5.22 × 10^−8 | mutation frequency (E. coli cells (NDM+); MER with CBS at 32, MIC multiple 1): 4.10 × 10^−8 | mutation frequency (E. coli cells (NDM+); MER with CBS at 32, MIC multiple 2): 3.28 × 10^−9 | mutation frequency (E. coli cells (NDM+); MER with CBS at 64, MIC multiple 0.5): 1.23 × 10^−8 | mutation frequency (E. coli cells (NDM+); MER with CBS at 64, MIC multiple 1): 1.15 × 10^−9 | mutation frequency (E. coli cells (NDM+); MER with CBS at 128, MIC multiple 0.5): 9.84 × 10^−10 | mutation frequency (E. coli cells (NDM+); MER with CBS at 256, MIC multiple 0.5): 1.31 × 10^−9 | lowering of intracellular bacterial density compared with mere MER, cell-invaded model (E. coli (NDM-1+); MER (2×MIC) and CBS): 9.22 fold | bacterial load, cell-associated model (E. coli (NDM-1+); MER in the presence of CBS (32 μg mL^−1)): ≤ 10^4 CFU
